Laboratory results: paper PMC5602531, “Purification and characterisation of the yeast plasma membrane ATP binding cassette transporter Pdr11p” (PLoS ONE, 2017)

What was measured:
Type in all cases: biochemical
Aus1p = biological target: T1, Aus1p (Saccharomyces cerevisiae, UniProt Q08409); experiment: radiolabelled ATPase assay with liposome-reconstituted protein
T1 construct: gene AUS1; FLAG-tagged Aus1p, purified and reconstituted in liposomes
T1 sequence (Q08409 1-1394): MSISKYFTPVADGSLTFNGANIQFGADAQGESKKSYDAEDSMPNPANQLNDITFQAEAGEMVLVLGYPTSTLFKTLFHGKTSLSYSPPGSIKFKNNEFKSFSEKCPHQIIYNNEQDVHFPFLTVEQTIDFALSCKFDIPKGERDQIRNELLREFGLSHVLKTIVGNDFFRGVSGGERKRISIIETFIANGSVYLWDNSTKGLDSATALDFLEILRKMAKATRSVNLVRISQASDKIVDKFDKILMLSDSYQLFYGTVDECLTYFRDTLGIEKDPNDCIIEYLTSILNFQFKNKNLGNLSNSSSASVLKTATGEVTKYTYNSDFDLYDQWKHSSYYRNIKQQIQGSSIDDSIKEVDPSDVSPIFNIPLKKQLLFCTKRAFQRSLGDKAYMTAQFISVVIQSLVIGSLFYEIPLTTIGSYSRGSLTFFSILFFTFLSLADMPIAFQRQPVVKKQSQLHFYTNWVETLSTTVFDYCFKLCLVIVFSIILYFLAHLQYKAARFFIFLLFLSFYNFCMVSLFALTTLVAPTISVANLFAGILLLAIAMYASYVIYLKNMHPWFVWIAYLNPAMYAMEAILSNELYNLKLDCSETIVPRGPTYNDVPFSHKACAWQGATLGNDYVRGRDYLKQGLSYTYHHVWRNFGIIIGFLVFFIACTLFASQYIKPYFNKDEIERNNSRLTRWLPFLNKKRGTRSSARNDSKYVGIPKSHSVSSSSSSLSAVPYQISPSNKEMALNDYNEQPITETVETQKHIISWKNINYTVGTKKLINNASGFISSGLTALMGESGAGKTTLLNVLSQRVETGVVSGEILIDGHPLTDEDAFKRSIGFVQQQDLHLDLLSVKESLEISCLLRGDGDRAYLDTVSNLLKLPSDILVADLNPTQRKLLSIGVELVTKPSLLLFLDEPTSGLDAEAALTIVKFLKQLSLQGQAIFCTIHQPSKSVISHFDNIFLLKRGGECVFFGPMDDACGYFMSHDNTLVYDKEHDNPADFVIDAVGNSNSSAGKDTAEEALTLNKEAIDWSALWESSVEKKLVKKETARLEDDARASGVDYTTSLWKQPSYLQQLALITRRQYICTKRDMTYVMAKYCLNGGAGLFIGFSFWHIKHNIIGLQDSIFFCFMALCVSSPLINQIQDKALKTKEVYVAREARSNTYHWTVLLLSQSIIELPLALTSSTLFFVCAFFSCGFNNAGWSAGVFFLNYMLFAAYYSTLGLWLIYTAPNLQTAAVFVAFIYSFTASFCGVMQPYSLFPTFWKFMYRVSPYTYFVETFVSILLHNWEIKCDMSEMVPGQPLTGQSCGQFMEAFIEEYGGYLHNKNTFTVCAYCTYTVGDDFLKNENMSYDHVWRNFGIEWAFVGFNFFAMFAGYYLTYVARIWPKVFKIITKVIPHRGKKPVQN

Pdr11p [1] = biological target: T2, Pdr11p (Saccharomyces cerevisiae, UniProt P40550); experiment: radiolabelled ATPase assay (release of inorganic phosphate) with purified protein
T2 construct: gene PDR11; N-terminal FLAG-tagged Pdr11p, purified in DDM
T2 sequence (P40550 1-1411): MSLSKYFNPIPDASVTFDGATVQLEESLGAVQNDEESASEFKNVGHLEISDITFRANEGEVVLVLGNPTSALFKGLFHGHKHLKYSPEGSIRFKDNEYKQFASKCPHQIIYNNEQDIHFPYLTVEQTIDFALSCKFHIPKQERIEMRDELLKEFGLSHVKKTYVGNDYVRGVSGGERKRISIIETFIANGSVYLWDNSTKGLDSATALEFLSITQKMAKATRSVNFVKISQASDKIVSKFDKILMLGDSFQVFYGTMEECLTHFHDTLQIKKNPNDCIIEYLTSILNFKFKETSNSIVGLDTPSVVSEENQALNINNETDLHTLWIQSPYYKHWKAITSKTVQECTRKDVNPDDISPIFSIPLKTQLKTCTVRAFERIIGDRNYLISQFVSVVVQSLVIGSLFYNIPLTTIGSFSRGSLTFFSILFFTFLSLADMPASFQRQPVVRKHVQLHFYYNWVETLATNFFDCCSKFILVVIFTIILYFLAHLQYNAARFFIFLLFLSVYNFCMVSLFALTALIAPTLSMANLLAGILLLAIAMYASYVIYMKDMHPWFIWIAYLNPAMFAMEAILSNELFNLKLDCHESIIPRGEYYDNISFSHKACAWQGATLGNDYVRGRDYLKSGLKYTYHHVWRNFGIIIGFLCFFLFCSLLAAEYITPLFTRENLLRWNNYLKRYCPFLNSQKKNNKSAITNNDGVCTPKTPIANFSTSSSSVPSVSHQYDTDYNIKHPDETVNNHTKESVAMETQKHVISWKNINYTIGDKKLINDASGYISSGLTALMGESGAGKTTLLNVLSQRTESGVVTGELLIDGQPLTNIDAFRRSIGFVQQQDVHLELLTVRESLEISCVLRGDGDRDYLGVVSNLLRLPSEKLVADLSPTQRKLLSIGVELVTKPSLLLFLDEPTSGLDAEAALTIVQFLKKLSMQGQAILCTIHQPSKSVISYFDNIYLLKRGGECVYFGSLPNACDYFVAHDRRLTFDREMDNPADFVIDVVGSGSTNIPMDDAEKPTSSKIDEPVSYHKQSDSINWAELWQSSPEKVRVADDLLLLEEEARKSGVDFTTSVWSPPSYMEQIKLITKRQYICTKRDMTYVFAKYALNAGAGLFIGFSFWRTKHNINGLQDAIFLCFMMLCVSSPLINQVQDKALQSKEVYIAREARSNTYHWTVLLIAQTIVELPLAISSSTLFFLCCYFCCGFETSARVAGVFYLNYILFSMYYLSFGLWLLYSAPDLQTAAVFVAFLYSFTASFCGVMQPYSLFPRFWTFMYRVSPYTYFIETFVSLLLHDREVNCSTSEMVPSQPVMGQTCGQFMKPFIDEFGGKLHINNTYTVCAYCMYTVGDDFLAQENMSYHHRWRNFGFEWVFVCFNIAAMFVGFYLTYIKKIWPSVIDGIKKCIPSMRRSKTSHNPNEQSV

Pdr11p [2] = biological target: T2, Pdr11p; experiment: radiolabelled ATPase assay with purified protein, […] AlF3
Pdr11p [3] = biological target: T2, Pdr11p; experiment: radiolabelled ATPase assay, dose-response with purified protein

## Nc1ncnc2c1ncn2[C@@H]1O[C@H](COP(=O)(O)OP(=O)(O)OP(=O)(O)O)[C@@H](O)[C@H]1O [ATP]
Aus1p
  radiolabelled ATPase assay with liposome-reconstituted protein: Purified Pdr11p and Aus1p were reconstituted into different liposomes (containing Rho-PE as fluorescent lipid marker) and assayed for ATPase activity
Pdr11p [1]
  radiolabelled ATPase assay (release of inorganic phosphate) with purified protei: ~ 60 ± 24 nmol of ATP/min/mg of protein

## [F][Al]([F])[F] [aluminium fluoride]
Pdr11p [2]
  radiolabelled ATPase assay with purified protein, 1 mM AlF3: strongly inhibited by the classical inhibitors of ABC proteins beryllium fluoride and aluminium fluoride (Fig 4B)

## [O]=[V]([OH])([OH])[OH] [orthovanadate]
Pdr11p [3]
  IC50: 4 ± 2 mM
